Among the data in article PMC7770649 (iScience, 2020) are Kd values, retold here.

The experiment has as its target TPI (triosephosphate isomerase), recombinant. The experiment in a line: isothermal titration calorimetry. Format: binding. Particulars: 100 μM TPI, 1 mM palmitic amide; DMSO control. A general note: In ITC the heat of successive injections is recorded.

Usually Kd stands for the concentration at which binding is half-saturated. On to `CCCCCCCCCCCCCCCC(N)=O` [palmitic amide], for which the Kd stood at 4.89 ± 1.23 µM.
